# In patent US12692262B2, “Substituted ureas as orexin receptor agonists” (Merck Sharp & Dohme LLC, priority 2020, dated 2026):
# Target: T1, human OX2R (Homo sapiens, UniProt O43614)
# T1 construct: expressed in transfected cells; host or cells: CHO (Chinese hamster ovary) cells grown under G418 selection
# T1 sequence (O43614 1-444): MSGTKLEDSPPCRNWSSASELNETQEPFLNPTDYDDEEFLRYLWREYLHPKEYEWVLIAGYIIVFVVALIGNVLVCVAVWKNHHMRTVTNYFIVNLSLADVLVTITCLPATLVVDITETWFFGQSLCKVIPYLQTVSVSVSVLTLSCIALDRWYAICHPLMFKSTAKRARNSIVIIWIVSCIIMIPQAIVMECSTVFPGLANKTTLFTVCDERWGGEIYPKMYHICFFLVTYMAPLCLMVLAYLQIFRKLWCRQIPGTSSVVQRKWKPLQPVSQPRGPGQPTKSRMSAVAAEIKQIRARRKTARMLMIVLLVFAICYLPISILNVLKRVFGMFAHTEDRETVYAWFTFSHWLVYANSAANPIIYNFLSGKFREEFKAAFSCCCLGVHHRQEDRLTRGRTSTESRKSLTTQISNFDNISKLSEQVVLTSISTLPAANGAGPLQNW
# Assay: IPOne (IP-1 accumulation) assay in CHO cells expressing human OX2R
# Type: cell-based
# Conditions: for EC50: CHO cells expressing human OX2R, IP-One assay, 2 h incubation, four parameter logistic fit, read-out: OX2R Potency, EC50; for % of maximum agonist effect (relative to Orexin A): percent effect vs mean max effect of a reference compound at 1 uM (100% activity vs Orexin A), human OX2R
# Description: The utility of the compounds in accordance with the present invention as orexin receptor OX1R and/or OX2R agonists may be readily determined without undue experimentation by methodology well known in the art. Both the OX1R and/or OX2R G-coupled protein receptors (GPCRs) couple through the Gαq signaling pathway, which ultimately promotes calcium mobilization via inositol triphosphate (IP3) production. […] The utility of the compounds in accordance with the present invention as orexin receptor OX1R and/or OX2R agonists may be determined utilizing this assay.
# In a typical experiment, the OX1 and OX2 receptor agonist activity is determined in accordance with the following general experimental method. Chinese hamster ovary (CHO) cells expressing human OX1R and/or the human OX2R were grown in Iscove's modified DMEM containing glutaMAX™, 1% G418, 100 U/mL penicillin, 100 μg/mL streptomycin and 10% heat-inactivated qualified fetal bovine serum (FBS). […] During this incubation, IP-one detection reagents were prepared (38:1:1 lysis buffer:D2:AB-cryptate reagents).
# For each compound, data were fit to a four parameter logistic fit (ActivityBase software) and the EC50 was reported as the inflection point of the resulting curve. […] The intrinsic orexin receptor agonist activity of a compound which may be used in the present invention may be determined by these assays.
EC50 [nM],% of maximum agonist effect (relative to Orexin A) [%],Structure (SMILES)
4.8,100.4,"C=CC[C@H](NC(=O)N(CC)C(c1cc(-c2cn3ccnc3c(OC)n2)c(OC)cn1)C(F)(F)F)C(F)(F)F (mixture of isomers) [Example 5-1, 1-ethyl-1-(2,2,2-trifluoro-1-(5-methoxy-4-(8-methoxyimidazo[1,2-a]pyrazin-6-yl)pyridin-2-yl)ethyl)-3-((S)-1,1,1-trifluoropent-4-en-2-yl)urea]"
0.9,100.8,"CCN(C(=O)N[C@@H](C1CCCC(F)(F)C1)C(F)(F)F)[C@H](C)c1cccc(-c2cn3ccnc3c(OC)n2)c1 (single isomer, unassigned) [Example 3-1]"
5.8,100.5,"CCN(C(=O)N[C@@H](CCC(F)(F)F)C(F)(F)F)C(C)c1cc(-c2cc(F)c3nccn3c2)c(Cl)cn1 (single isomer, unassigned) [Example 15-1]"
3.2,100.8,"CCN(C(=O)NC(C#N)C1CCCC(F)(F)C1)[C@H](C)c1cccc(-c2cn3ccnc3c(OC)n2)c1 (single isomer, unassigned) [Example 16]"
50.9,96.3,"CCN(C(=O)NC(CO)C(F)(F)F)[C@H](C)c1cccc(-c2cn3ccnc3c(OC)n2)c1 (single isomer, unassigned) [Example 21]"
125,95.3,"CCN(C(=O)NC(COC(=O)N(C)C)C(F)(F)F)[C@H](C)c1cccc(-c2cn3ccnc3c(OC)n2)c1 (single isomer, unassigned) [Example 23]"
144,89.1,"CCN(C(=O)NC(CC(=O)N(C)C)C(F)(F)F)[C@H](C)c1cccc(-c2cn3ccnc3c(OC)n2)c1 (single isomer, unassigned) [Example 24]"
146,80.7,"CCN(C(=O)NC(CN(C)C)C(F)(F)F)[C@H](C)c1cccc(-c2cc(OC)n3nccc3c2)c1 (stereo partly drawn) [Example 1-13, 3-(3-(dimethylamino)-1,1,1-trifluoropropan-2-yl)-1-ethyl-1-((R)-1-(3-(7-methoxypyrazolo[1,5-a]pyridin-5-yl)phenyl)ethyl)urea]"
18.5,101.3,"CCN(C(=O)NC(CC#N)C(F)(F)F)[C@H](C)c1cccc(-c2cn3ccnc3c(OC)n2)c1 (stereo partly drawn) [Example 1-14, 3-(3-cyano-1,1,1-trifluoropropan-2-yl)-1-ethyl-1-((R)-1-(3-(8-methoxyimidazo[1,2-a]pyrazin-6-yl)phenyl)ethyl)urea]"
271,99.7,"CCN(C(=O)NC(C1CN(C)C1)C(F)(F)F)[C@H](C)c1cccc(-c2cn3ccnc3c(OC)n2)c1 (stereo partly drawn) [Example 1-15, 1-ethyl-1-((R)-1-(3-(8-methoxyimidazo[1,2-a]pyrazin-6-yl)phenyl)ethyl)-3-(2,2,2-trifluoro-1-(1-methylazetidin-3-yl)ethyl)urea]"
2.8,100.1,"CCN(C(=O)NC(Cn1nccn1)C(F)(F)F)[C@H](C)c1cccc(-c2cn3ccnc3c(OC)n2)c1 (stereo partly drawn) [Example 1-16, 1-ethyl-1-((R)-1-(3-(8-methoxyimidazo[1,2-a]pyrazin-6-yl)phenyl)ethyl)-3-(1,1,1-trifluoro-3-(2H-1,2,3-triazol-2-yl)propan-2-yl)urea]"
10.5,98.7,"CCN(C(=O)NC(Cn1ccnn1)C(F)(F)F)[C@H](C)c1cccc(-c2cn3ccnc3c(OC)n2)c1 (stereo partly drawn) [Example 1-17, 1-ethyl-1-((R)-1-(3-(8-methoxyimidazo[1,2-a]pyrazin-6-yl)phenyl)ethyl)-3-(1,1,1-trifluoro-3-(1H-1,2,3-triazol-1-yl)propan-2-yl)urea]"
6.8,100.1,"CCN(C(=O)N[C@@H](C)C(F)(F)F)[C@@H](c1cc(-c2cn3ccnc3c(OC)n2)c(OC)cn1)C(F)(F)F [Example 2-1, 1-ethyl-1-((S)-2,2,2-trifluoro-1-(5-methoxy-4-(8-methoxyimidazo[1,2-a]pyrazin-6-yl)pyridin-2-yl)ethyl)-3-((S)-1,1,1-trifluoropropan-2-yl)urea]"

# The next lines start with the compound.
Structure (SMILES),EC50 [nM],% of maximum agonist effect (relative to Orexin A) [%]
"CCN(C(=O)N[C@@H](CCC(F)(F)F)C(F)(F)F)[C@H](C)c1cccc(-c2ccc3nccn3c2)c1 [Example 1-1, 1-ethyl-3-((S)-1,1,1,5,5,5-hexafluoropentan-2-yl)-1-((R)-1-(3-(imidazo[1,2-a]pyridin-6-yl)phenyl)ethyl)urea]",7.1,98.4
"CCN(C(=O)N[C@H](C)c1cccc(F)c1)[C@H](C)c1cccc(-c2cn3ccnc3c(OC)n2)c1 [Example 1-2, 1-ethyl-3-((R)-1-(3-fluorophenyl)ethyl)-1-((R)-1-(3-(8-methoxyimidazo[1,2-a]pyrazin-6-yl)phenyl)ethyl)urea]",5.2,98.3
"CCN(C(=O)N[C@@H]1CC[C@H](C(F)(F)F)C1)[C@H](C)c1cccc(-c2cn3ccnc3c(OC)n2)c1 [Example 1-3, 1-ethyl-1-((R)-1-(3-(8-methoxyimidazo[1,2-a]pyrazin-6-yl)phenyl)ethyl)-3-((1R,3S)-3-(trifluoromethyl)cyclopentyl)urea]",6.5,99.9
"CCN(C(=O)N[C@H](C)C1CCC(F)(F)CC1)[C@H](C)c1cccc(-c2cn3ccnc3c(OC)n2)c1 [Example 1-4, 3-((R)-1-(4,4-difluorocyclohexyl)ethyl)-1-ethyl-1-((R)-1-(3-(8-methoxyimidazo[1,2-a]pyrazin-6-yl)phenyl)ethyl)urea]",6.9,96.1
"CCN(C(=O)NCC(F)(F)F)[C@H](C)c1cccc(-c2cn3ccnc3c(OC)n2)c1 [Example 1-5, (R)-1-ethyl-1-(1-(3-(8-methoxyimidazo[1,2-a]pyrazin-6-yl)phenyl)ethyl)-3-(2,2,2-trifluoroethyl)urea]",73.4,94.9
"CCN(C(=O)NC[C@H]1COCC(=O)N1)[C@H](C)c1cccc(-c2cn3ccnc3c(OC)n2)c1 [Example 1-6, 1-ethyl-1-((R)-1-(3-(8-methoxyimidazo[1,2-a]pyrazin-6-yl)phenyl)ethyl)-3-(((S)-5-oxomorpholin-3-yl)methyl)urea]",193,99.0
"CCN(C(=O)NCC(N(C)C)C(F)(F)F)[C@H](C)c1cccc(-c2cc(OC)c3nccn3c2)c1 (stereo partly drawn) [Example 1-7, 3-(2-(dimethylamino)-3,3,3-trifluoropropyl)-1-ethyl-1-((R)-1-(3-(8-methoxyimidazo[1,2-a]pyridin-6-yl)phenyl)ethyl)urea]",17.5,97.3
"CC[C@H](CCC(F)(F)F)NC(=O)N(CC)Cc1ccc(OC)c(-c2cc(OC)c3nccn3c2)c1 [Example 1-8, (R)-1-ethyl-1-(4-methoxy-3-(8-methoxyimidazo[1,2-a]pyridin-6-yl)benzyl)-3-(6,6,6-trifluorohexan-3-yl)urea]",0.8,96.5
"CCN(C(=O)NC(C)C1CCCC(F)(F)C1)[C@H](C)c1cccc(-c2cn3ccnc3c(OC)n2)c1 (stereo partly drawn) [Example 1-9, 3-(1-(3,3-difluorocyclohexyl)ethyl)-1-ethyl-1-((R)-1-(3-(8-methoxyimidazo[1,2-a]pyrazin-6-yl)phenyl)ethyl)urea]",0.6,99.8
"CCN(C(=O)NC(C#N)C1CCCC1)[C@H](C)c1cccc(-c2cn3ccnc3c(OC)n2)c1 (stereo partly drawn) [Example 1-10, 3-(cyano(cyclopentyl)methyl)-1-ethyl-1-((R)-1-(3-(8-methoxyimidazo[1,2-a]pyrazin-6-yl)phenyl)ethyl)urea]",8.3,101.0
"CCOC(=O)CC(NC(=O)N(CC)[C@H](C)c1cccc(-c2cn3ccnc3c(OC)n2)c1)C(F)(F)F (stereo partly drawn) [Example 1-11, ethyl 3-(3-ethyl-3-((R)-1-(3-(8-methoxyimidazo[1,2-a]pyrazin-6-yl)phenyl)ethyl)ureido)-4,4,4-trifluorobutanoate]",20.1,98.0
"CCN(C(=O)NC(C#N)c1cccc(C(F)(F)F)c1)[C@H](C)c1cccc(-c2cn3ccnc3c(OC)n2)c1 (stereo partly drawn) [Example 1-12, 3-(cyano(3-(trifluoromethyl)phenyl)methyl)-1-ethyl-1-((R)-1-(3-(8-methoxyimidazo[1,2-a]pyrazin-6-yl)phenyl)ethyl)urea]",19.8,99.1
